Experimental data reported in US12084444B2, “Spiro-lactam NMDA modulators and methods of using same” (Tenacia Biotechnology (Hong Kong) Co., Limited, priority 2016, dated 2024).

Tests used:
Sprague Dawley rats = test: Porsolt forced swim test; assay type: in vivo; settings: 0.1 mg/kg; for % reduction in float time: relative to vehicle group
Description: A non-clinical in vivo pharmacology study (Porsolt assay) was performed to measure antidepressant-like effects. A negative control (0.5% sodium carboxymethyl cellulose in 0.9% sterile saline vehicle) and a positive control (fluoxetine) are shown for comparison against test compound. The study allowed for the evaluation of the effects of each compound on the Porsolt forced swim test as assessed by the rats' response (reduced floating time) during a 5-minute swimming test.
Male 2-3 month old Sprague Dawley rats were used (Harlan, Indianapolis, IN). Rats were housed in Lucite cages with aspen wood chip bedding, maintained on a 12:12 light:dark cycle (lights on at 5 AM), and given ad libitum access to Purina lab chow (USA) and tap water throughout the study.
The Porsolt forced swim test adapted for use in rats was performed as described by Burgdorf et al., (The long-lasting antidepressant effects of rapastinel (GLYX-13) are associated with a metaplasticity process in the medial prefrontal cortex and hippocampus. Neuroscience 308:202-211, 2015). Animals were placed in a 46 cm tall×20 cm in diameter clear glass tube filled to 30 cm with tap water (23±1° C.) for 15 min on the first day (habituation) and 5 min on the subsequent test day. Positive control fluoxetine was dosed 3 times (24 h, 5 h and 1 h) prior to testing. Animals were tested 1 h or 24 h post-dosing with the test compounds or vehicle. Animals received a 15 min habituation session 1 day before the 5 min test. Water was changed after every other animal. Animals were videotaped, and floating time as defined as the minimal amount of effort required to keep the animals head above water was scored offline by a blinded experimenter with high inter-rater reliability (Pearson's r>0.9).
Each compound tested at dose level shown. Significance vs. vehicle group for each experiment is marked. […] A compound marked “No” was not statistically significant from vehicle. Data was averaged for test compound and vehicle groups (N approximately 8 per group) and the percent reduction in floating for group treated with test compound relative to group treated with vehicle is shown.

[1] = target: T1, NMDAR2A expressing HEK cell membranes (Homo sapiens, UniProt Q12879); test: NMDAR agonist assay, [3H]MK-801 binding, NMDAR2A; assay type: biochemical; set-up: key to NMDAR2A B: log EC50: 0=−; ≥1×10^−9 M (e.g., −8)=+; <1×10^−9 M (e.g., −10)=++; settings: 50 μM glutamate
T1 construct: expressed in transfected cells; host or cells: HEK cells (membrane extract)
In short: (§1)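 HEK membranes (300 μg protein) expressing each subtype were preincubated 15 min at 25 °C with 50 μM glutamate and compound (1×10^−15–1×10^−7 M) or 1 mM glycine. [3H]MK-801 (0.3 μCi) binding then ran 15 min under nonequilibrium conditions, followed by filtration. EC50 and % maximal binding against 1 mM glycine came from three-parameter fits of baseline-subtracted DPM (N=2).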

[2] = target: T2, NMDAR2A expressing HEK cell membranes (Homo sapiens, UniProt Q05586+Q12879); test: NMDAR agonist assay, [3H]MK-801 binding, NMDAR2A; assay type: biochemical; set-up: key to NMDAR2A B: log EC50: 0=−; ≥1×10^−9 M (e.g., −8)=+; <1×10^−9 M (e.g., −10)=++; settings: 0.25 h, 50 μM glutamate; read-out: NMDAR2A A: % maximal [3H]MK-801 binding relative to 1 mM glycine
T2 construct: expressed in transfected cells; host or cells: HEK cells (membrane extract)
In short: as §1

[3] = target: T3, NMDAR2B expressing HEK cell membranes (Homo sapiens, UniProt Q05586+Q13224); test: NMDAR agonist assay, [3H]MK-801 binding, NMDAR2B; assay type: biochemical; settings: 50 μM glutamate
T3 construct: expressed in transfected cells; host or cells: HEK cells (membrane extract)
In short: as §1

T3 sequence (Q13224 27-1484, other chains not shown): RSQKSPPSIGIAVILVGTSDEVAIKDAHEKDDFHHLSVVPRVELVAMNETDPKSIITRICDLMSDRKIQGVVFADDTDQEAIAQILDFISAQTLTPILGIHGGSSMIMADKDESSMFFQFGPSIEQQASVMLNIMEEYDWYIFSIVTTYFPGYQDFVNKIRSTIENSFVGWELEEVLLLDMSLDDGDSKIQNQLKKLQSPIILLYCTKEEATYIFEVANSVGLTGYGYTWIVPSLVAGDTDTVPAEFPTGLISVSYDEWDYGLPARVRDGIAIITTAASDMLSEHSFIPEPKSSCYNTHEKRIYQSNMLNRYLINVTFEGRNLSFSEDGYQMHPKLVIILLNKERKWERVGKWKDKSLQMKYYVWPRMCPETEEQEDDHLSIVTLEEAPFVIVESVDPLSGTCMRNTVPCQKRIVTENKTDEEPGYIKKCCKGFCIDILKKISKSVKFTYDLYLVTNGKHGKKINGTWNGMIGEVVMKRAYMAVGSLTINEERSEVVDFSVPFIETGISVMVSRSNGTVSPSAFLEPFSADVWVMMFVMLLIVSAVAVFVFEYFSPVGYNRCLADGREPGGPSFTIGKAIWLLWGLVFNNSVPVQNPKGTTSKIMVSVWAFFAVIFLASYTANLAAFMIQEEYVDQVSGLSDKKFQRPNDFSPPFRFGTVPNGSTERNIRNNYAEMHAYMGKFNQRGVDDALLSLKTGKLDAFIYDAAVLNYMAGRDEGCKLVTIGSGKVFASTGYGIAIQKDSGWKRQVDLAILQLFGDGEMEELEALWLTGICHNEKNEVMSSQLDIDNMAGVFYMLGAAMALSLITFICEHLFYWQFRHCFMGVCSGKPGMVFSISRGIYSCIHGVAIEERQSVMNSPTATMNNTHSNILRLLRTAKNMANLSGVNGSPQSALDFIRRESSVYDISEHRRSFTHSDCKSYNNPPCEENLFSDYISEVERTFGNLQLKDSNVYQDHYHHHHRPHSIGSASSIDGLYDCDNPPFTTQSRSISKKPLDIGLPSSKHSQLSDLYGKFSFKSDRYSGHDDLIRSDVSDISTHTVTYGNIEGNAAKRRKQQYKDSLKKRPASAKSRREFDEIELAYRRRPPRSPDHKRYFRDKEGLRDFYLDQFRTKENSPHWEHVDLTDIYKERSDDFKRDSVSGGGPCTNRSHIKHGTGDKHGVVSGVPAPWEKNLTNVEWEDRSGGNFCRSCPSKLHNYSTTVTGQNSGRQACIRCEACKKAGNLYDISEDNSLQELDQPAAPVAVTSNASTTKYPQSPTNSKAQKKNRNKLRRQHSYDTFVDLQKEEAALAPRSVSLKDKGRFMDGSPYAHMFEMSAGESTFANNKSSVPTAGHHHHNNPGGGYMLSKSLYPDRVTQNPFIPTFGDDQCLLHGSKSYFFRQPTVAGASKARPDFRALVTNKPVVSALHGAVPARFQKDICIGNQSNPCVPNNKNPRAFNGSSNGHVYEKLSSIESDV
T2 sequence (Q12879 23-1464, other chains not shown): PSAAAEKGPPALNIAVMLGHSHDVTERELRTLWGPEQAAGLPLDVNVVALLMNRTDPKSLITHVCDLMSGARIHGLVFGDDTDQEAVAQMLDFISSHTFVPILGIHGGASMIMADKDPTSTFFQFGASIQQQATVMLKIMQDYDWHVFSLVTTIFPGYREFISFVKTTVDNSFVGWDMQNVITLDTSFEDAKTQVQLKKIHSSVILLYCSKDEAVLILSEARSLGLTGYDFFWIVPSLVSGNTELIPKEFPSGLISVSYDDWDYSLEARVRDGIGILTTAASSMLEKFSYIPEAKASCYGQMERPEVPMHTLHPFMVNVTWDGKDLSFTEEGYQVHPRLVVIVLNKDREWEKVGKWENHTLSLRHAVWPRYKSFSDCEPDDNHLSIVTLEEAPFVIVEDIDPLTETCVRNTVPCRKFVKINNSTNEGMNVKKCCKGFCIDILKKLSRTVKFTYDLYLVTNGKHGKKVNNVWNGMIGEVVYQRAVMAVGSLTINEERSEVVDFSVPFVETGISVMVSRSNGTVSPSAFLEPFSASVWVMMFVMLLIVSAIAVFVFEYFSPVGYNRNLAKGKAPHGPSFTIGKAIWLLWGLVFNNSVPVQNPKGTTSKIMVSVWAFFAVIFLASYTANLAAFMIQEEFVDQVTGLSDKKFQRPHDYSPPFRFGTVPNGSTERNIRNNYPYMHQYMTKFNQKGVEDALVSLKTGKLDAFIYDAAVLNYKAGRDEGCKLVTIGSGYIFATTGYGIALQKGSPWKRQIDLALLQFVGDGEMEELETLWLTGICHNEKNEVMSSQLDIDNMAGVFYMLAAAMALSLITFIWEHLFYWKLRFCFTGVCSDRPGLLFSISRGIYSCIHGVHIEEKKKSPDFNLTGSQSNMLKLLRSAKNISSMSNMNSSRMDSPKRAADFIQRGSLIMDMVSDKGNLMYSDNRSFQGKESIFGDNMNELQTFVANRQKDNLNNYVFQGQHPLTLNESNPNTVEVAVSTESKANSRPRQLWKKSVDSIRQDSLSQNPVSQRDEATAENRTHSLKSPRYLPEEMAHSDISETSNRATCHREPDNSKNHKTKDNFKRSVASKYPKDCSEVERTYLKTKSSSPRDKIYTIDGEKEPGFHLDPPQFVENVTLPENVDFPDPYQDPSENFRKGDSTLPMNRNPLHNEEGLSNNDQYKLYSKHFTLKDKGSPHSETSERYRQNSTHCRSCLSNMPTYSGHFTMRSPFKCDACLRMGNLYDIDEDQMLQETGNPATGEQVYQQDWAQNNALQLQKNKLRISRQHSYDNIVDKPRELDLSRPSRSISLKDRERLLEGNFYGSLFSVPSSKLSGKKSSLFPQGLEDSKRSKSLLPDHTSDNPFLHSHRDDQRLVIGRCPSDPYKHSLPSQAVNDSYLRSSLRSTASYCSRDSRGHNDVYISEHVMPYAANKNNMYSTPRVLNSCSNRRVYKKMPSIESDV
T1 sequence (Q12879 23-1464, other chains not shown): as above

NMDAR2A B: log EC50 [1]: −
Emax [2]: 0%
EC50 ([3]; read-out: NMDAR2B B: log EC50 (converted)): < 1 nM
Emax ([3]; 0.25 h, read-out: NMDAR2B A: % maximal [3H]MK-801 binding relative to 1 mM glycine): < 100%
SMILES: COc1ccc(CN2C[C@@]3(CCNC(=O)C3)C2=O)cc1 [Compound AA-2, 2-(4-methoxybenzyl)-2,7-diazaspiro[3.5]nonane-1,6-dione]
Significance vs. vehicle (Sprague Dawley rats; 1 h post-dose): Yes (found to be statistically significant (p<=0.05) from vehicle at dose level shown)
% reduction in float time (Sprague Dawley rats; 1 h post-dose): 51.5%
Significance vs. vehicle (Sprague Dawley rats; 24 h post-dose): Yes (found to be statistically significant (p<=0.05) from vehicle at dose level shown)
% reduction in float time (Sprague Dawley rats; 24 h post-dose): 77.80%
